Measurements from patent US20250179061A1 (SIRONAX LTD., priority 2022, published 2025).
Structures can show the parent of a compound that is named as a salt.

The compounds below were run on HT-29 cells (assay: HT-29 necroptosis cell viability assay (TNF-α/SMAC mimetic/zVAD-FMK, CellTiter-Glo)). Conditions: Homo sapiens, HT-29, HT-29 cells, necroptosis induced by TNF-α/SMAC mimetic/zVAD-FMK, CellTiter-Glo; read-out: Activity (IC50 class).
Format: cell-based
In short: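 HT-29 cells (~5,000/well, overnight) in FBS-free McCoy's 5A with TNF-α 10 ng/ml, SMAC mimetic 6 μM and zVAD-FMK 10 μM plus 10-point 1:3 compound titration, 20 h at 37°C. ATP measured by CellTiter-Glo luminescence; IC50 as geometric mean of duplicates.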

| SMILES | IC50 [nM] |
| --- | --- |
| COc1cncc(Oc2ccc(-n3ncn(Cc4c(F)cccc4F)c3=O)cc2)c1 [Example 671, 4-(2,6-difluorobenzyl)-2-(4-((5-methoxypyridin-3-yl)oxy)phenyl)-2,4-dihydro-3H-1,2,4-triazol-3-one] | < 100 |
| Cc1c(CC#N)noc1Oc1ccc(-n2ncn(Cc3c(F)cccc3F)c2=O)cc1F [Example 650, 2-(5-(4-(4-(2,6-difluorobenzyl)-5-oxo-4,5-dihydro-1H-1,2,4-triazol-1-yl)-2-fluorophenoxy)-4-methylisoxazol-3-yl)acetonitrile] | < 100 |

Same assay, conditions: Homo sapiens, HT-29, HT-29 necroptosis cell viability assay; class symbols for IC50; read-out: Activity

| SMILES | IC50 [nM] |
| --- | --- |
| Cc1nc(C2=CCCC2)sc1Oc1ccc(-n2ncn(Cc3c(F)cccc3F)c2=O)cc1 [Example 546, 2-(4-((2-(cyclopent-1-en-1-yl)-4-methylthiazol-5-yl)oxy)phenyl)-4-(2,6-difluorobenzyl)-2,4-dihydro-3H-1,2,4-triazol-3-one] | < 100 |
| Cc1cc(N2CC(C)(C#N)C2)nn1Cc1ccc(-n2ncn(Cc3c(F)cccc3F)c2=O)cc1 [Example 541, 1-(1-(4-(4-(2,6-difluorobenzyl)-5-oxo-4,5-dihydro-1H-1,2,4-triazol-1-yl)benzyl)-5-methyl-1H-pyrazol-3-yl)-3-methylazetidine-3-carbonitrile] | < 100 |
| Cc1cc(N2CC(C)(N)C2)nn1Cc1ccc(-n2ncn(Cc3c(F)cccc3F)c2=O)cc1 [Example 537, 2-(4-((3-(3-amino-3-methylazetidin-1-yl)-5-methyl-1H-pyrazol-1-yl)methyl)phenyl)-4-(2,6-difluorobenzyl)-2,4-dihydro-3H-1,2,4-triazol-3-one] | 1000 to 10000 |
| O=c1n(Cc2c(F)cccc2F)cnn1-c1ccc(Oc2ccnc(N3CCC34CCC4)c2)cc1 [Example 498, 2-(4-((2-(1-azaspiro[3.3]heptan-1-yl)pyridin-4-yl)oxy)phenyl)-4-(2,6-difluorobenzyl)-2,4-dihydro-3H-1,2,4-triazol-3-one] | 100 to 1000 |
| O=c1n(Cc2c(F)cccc2F)cnn1-c1ccc(Oc2ccnc(NCC3CC3)c2)cc1 [Example 524, 2-(4-((2-((cyclopropylmethyl)amino)pyridin-4-yl)oxy)phenyl)-4-(2,6-difluorobenzyl)-2,4-dihydro-3H-1,2,4-triazol-3-one] | < 100 |
| Cc1nc(N2CC(C)(NC(=O)OC(C)(C)C)C2)sc1C(C)c1ccc(-n2ncn(Cc3c(F)cccc3F)c2=O)cc1 (centres unmarked) [Example 514, tert-butyl (1-(5-(1-(4-(4-(2,6-difluorobenzyl)-5-oxo-4,5-dihydro-1H-1,2,4-triazol-1-yl)phenyl)ethyl)-4-methylthiazol-2-yl)-3-methylazetidin-3-yl)carbamate] | < 100 |
| Cc1nc(C2(O)COC2)sc1Oc1ccc(-n2ncn(Cc3c(F)cccc3F)c2=O)cc1F [Example 585, 4-(2,6-difluorobenzyl)-2-(3-fluoro-4-((2-(3-hydroxyoxetan-3-yl)-4-methylthiazol-5-yl)oxy)phenyl)-2,4-dihydro-3H-1,2,4-triazol-3-one] | < 100 |

Same assay, conditions: Homo sapiens, HT-29, HT-29 necroptosis cell viability, IC50 class symbols; read-out: Activity

| SMILES | IC50 [nM] |
| --- | --- |
| O=c1n(-c2ccc(Oc3ccccc3)cc2)nc2n1C(c1ccccc1)CC2 (centres unmarked) [Example 428, 2-(4-phenoxyphenyl)-5-phenyl-2,5,6,7-tetrahydro-3H-pyrrolo[2,1-c][1,2,4]triazol-3-one] | < 100 |
| O=c1n(Cc2c(F)cccc2F)cnn1-c1ccc(Oc2ccnc(NC(C3CC3)C(F)(F)F)c2F)cc1 (centres unmarked) [Example 360, 2-(4-((2-((1-cyclopropyl-2,2,2-trifluoroethyl)amino)-3-fluoropyridin-4-yl)oxy)phenyl)-4-(2,6-difluorobenzyl)-2,4-dihydro-3H-1,2,4-triazol-3-one] | 1000 to 10000 |
| Cc1c(Oc2ccc(-n3ncn(Cc4c(F)cccc4F)c3=O)cc2F)ccnc1N1CC(C)(N)C1 [Example 417, 2-(4-((2-(3-amino-3-methylazetidin-1-yl)-3-methylpyridin-4-yl)oxy)-3-fluorophenyl)-4-(2,6-difluorobenzyl)-2,4-dihydro-3H-1,2,4-triazol-3-one] | < 100 |
| Cn1ncn(Cc2ccc(-n3ncn(Cc4c(F)cccc4F)c3=O)cc2)c1=O [Example 479, 4-(2,6-difluorobenzyl)-2-(4-((1-methyl-5-oxo-1,5-dihydro-4H-1,2,4-triazol-4-yl)methyl)phenyl)-2,4-dihydro-3H-1,2,4-triazol-3-one] | 1000 to 10000 |
| O=c1n(Cc2c(F)cccc2F)cnn1-c1ccc(Oc2ccncc2Br)cc1 [Example 432, 2-(4-((3-bromopyridin-4-yl)oxy)phenyl)-4-(2,6-difluorobenzyl)-2,4-dihydro-3H-1,2,4-triazol-3-one] | < 100 |
| Cc1c(C(N)=O)noc1Oc1ccc(-n2ncn(Cc3c(F)cccc3F)c2=O)cc1F [Example 476, 5-(4-(4-(2,6-difluorobenzyl)-5-oxo-4,5-dihydro-1H-1,2,4-triazol-1-yl)-2-fluorophenoxy)-4-methylisoxazole-3-carboxamide] | < 100 |
| Cc1nc(C(C)(C)O)sc1Oc1ncc(-n2ncn(Cc3c(F)cccc3F)c2=O)cc1F [Example 465, 4-(2,6-difluorobenzyl)-2-(5-fluoro-6-((2-(2-hydroxypropan-2-yl)-4-methylthiazol-5-yl)oxy)pyridin-3-yl)-2,4-dihydro-3H-1,2,4-triazol-3-one] | < 100 |
| Cc1c(Oc2ccc(-n3ncn(Cc4c(F)cccc4F)c3=O)cc2)ccnc1N1CC2(CCOCC2)C1 [Example 273, 4-(2,6-difluorobenzyl)-2-(4-((3-methyl-2-(7-oxa-2-azaspiro[3.5]nonan-2-yl)pyridin-4-yl)oxy)phenyl)-2,4-dihydro-3H-1,2,4-triazol-3-one] | 100 to 1000 |

Same assay, conditions: Homo sapiens; HT-29 cells stimulated with TNF-α (10 ng/ml), SMAC mimetic (6 μM) and zVAD-FMK (10 μM); 20 hours; CellTiter-Glo ATP luminescence; geometric mean IC50 from 10 points; read-out: Activity

| SMILES | IC50 [nM] |
| --- | --- |
| Cc1nc(N2C[C@H](O)[C@@H]2C)sc1Cc1ccc(-n2ncn(Cc3c(F)cccc3F)c2=O)cc1 [Example 64, 4-(2,6-difluorobenzyl)-2-(4-((2-((2S,3S)-3-hydroxy-2-methylazetidin-1-yl)-4-methylthiazol-5-yl)methyl)phenyl)-2,4-dihydro-3H-1,2,4-triazol-3-one] | < 100 |
| Cc1nc(C2COC2)sc1Oc1ccc(-n2ncn(Cc3c(F)cccc3F)c2=O)cc1 [Example 42, 4-(2,6-difluorobenzyl)-2-(4-((4-methyl-2-(oxetan-3-yl)thiazol-5-yl)oxy)phenyl)-2,4-dihydro-3H-1,2,4-triazol-3-one] | < 100 |
| Cc1nc(N2C[C@H](C#N)[C@@H]2C)sc1Cc1ccc(-n2ncn(Cc3c(F)cccc3F)c2=O)cc1F [Example 61, (2S,3S)-1-(5-(4-(4-(2,6-difluorobenzyl)-5-oxo-4,5-dihydro-1H-1,2,4-triazol-1-yl)-2-fluorobenzyl)-4-methylthiazol-2-yl)-2-methylazetidine-3-carbonitrile formate] | < 100 |
| Cc1nc(N2CC(C#N)C2)sc1Oc1ccc(-n2ncn(Cc3c(F)cccc3F)c2=O)cc1 [Example 53, 1-(5-(4-(4-(2,6-difluorobenzyl)-5-oxo-4,5-dihydro-1H-1,2,4-triazol-1-yl)phenoxy)-4-methylthiazol-2-yl)azetidine-3-carbonitrile] | < 100 |
| Cc1nc(C(N)=O)sc1Oc1ccc(-n2ncn(Cc3c(F)cccc3F)c2=O)cc1Cl [Example 88, 5-(2-chloro-4-(4-(2,6-difluorobenzyl)-5-oxo-4,5-dihydro-1H-1,2,4-triazol-1-yl)phenoxy)-4-methylthiazole-2-carboxamide] | < 100 |
| Cc1nc(N2CCC(C#N)C2)sc1Oc1ccc(-n2ncn(Cc3c(F)cccc3F)c2=O)cc1 (centres unmarked) [Example 54, 1-(5-(4-(4-(2,6-difluorobenzyl)-5-oxo-4,5-dihydro-1H-1,2,4-triazol-1-yl)phenoxy)-4-methylthiazol-2-yl)pyrrolidine-3-carbonitrile] | < 100 |
